In patent US20100168243A1, “Renin Inhibitors” (priority 2007, published 2010) one finds IC50 data, which are given here for two compounds.

pIC50: −log10 of the molar value.

This test concerns the target T1, trypsin-activated recombinant human renin (Homo sapiens, UniProt P00797).
T1 sequence (P00797 67-406): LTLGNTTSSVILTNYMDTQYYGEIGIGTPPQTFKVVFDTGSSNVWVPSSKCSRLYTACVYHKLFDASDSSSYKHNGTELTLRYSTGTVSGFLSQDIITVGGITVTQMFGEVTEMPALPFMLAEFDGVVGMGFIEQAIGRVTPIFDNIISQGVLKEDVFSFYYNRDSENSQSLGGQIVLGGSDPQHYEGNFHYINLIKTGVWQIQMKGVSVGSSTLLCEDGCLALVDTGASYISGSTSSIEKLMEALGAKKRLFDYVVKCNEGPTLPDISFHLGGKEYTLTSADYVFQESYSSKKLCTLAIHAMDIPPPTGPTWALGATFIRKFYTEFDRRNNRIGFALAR
Put plainly: IC50 for renin, fluorescence of quenched peptide substrate (protocols of Example 3 or 4). The format is biochemical. The settings on record: protocols described in Example 3 or 4; class according to the IC50 values; read-out: IC50 for renin, class in words. How it is done: The sequence of this peptide corresponds to the sequence of human angiotensinogen. The following test protocol is used: All reactions are carried out in a flat bottom white opaque microtiter plate. A 4 μL aliquot of 400 μM renin substrate (DABCYL-γ-Abu-[…]EDANS) in 192 μL assay buffer (50 mM BES, 150 mM NaCl, 0.25 mg/mL bovine serum albumin, pH7.0) is added to 4 μL of test compound in DMSO at various concentrations ranging from 10 μM to 1 nM final concentrations. Next, 100 μL of trypsin-activated recombinant human renin (final enzyme concentration of 0.2-2 nM) in assay buffer is added, and the solution is mixed by pipetting. The increase in fluorescence at 495 nm (excitation at 340 nm) is measured for 60-360 min at rt using a Perkin-Elmer Fusion microplate reader. The slope of a linear portion of the plot of fluorescence increases as a function of time is then determined, and the rate is used for calculating percent inhibition in relation to uninhibited control. […]
All reactions are carried out in a low volume, black, 384 well microtiter plate (Greiner Bio-one). […] After 2 hours of reaction at room temperature, the plates were read on a Viewlux™ (Perkin Elmer) with an excitation/emission of 485/530 nm, and using a 505 nm cutoff filter. […]
The IC50 values of the disclosed compounds for renin were determined according to the protocols described in Example 3 or 4. […]

A word on the pIC50: it is −log10 of the IC50, conventionally taken in molar units. With `COCCCCC(O)(CCN(C)C(=O)[C@H]1C[C@@H](N)[C@@H](O)C1)c1cccc(Cl)c1-c1cccc(C)c1` (stereo partly drawn) [Compound 1, (1S,3R,4S)-3-amino-N-[3-(6-chloro-3′-methyl-2-biphenylyl)-3-hydroxy-7-(methyloxy)heptyl]-4-hydroxy-N-methylcyclopentanecarboxamide], the pIC50 was 7.30 to 11.00. As for `COCCCC[C@](O)(CCN(C)C(=O)[C@H]1C[C@@H](N)[C@@H](O)C1)c1cccc(Cl)c1-c1cccc(C)c1` [Compound 11, (1S,3R,4S)-3-amino-N—((S)-3-(6-chloro-3′-methylbiphenyl-2-yl)-3-hydroxy-7-methoxyheptyl)-4-hydroxy-N-methylcyclopentanecarboxamide], the pIC50 was 7.30 to 11.00.
